Measured values: PMC10466331, “Fluorescence polarisation activity-based protein profiling for the identification of deoxynojirimycin-type inhibitors selective for lysosomal retaining alpha- and beta-glucosidases” (Chemical Science, 2023)
Like-named read-outs stand apart in the source and are kept apart here.

How the values were obtained:
Type in all cases: biochemical
[1] = biological target: T1, ER α-glucosidase GANAB (from Pompe disease Fibroblast lysates) (Homo sapiens, UniProt Q14697); assay: fluorogenic substrate (4MU-α-D-glucopyranoside) assay on GANAB in Pompe fibroblast homogenates;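 also: inhibitor preincubated 30 min at 37 °C with homogenate, then GANAB activity read after 2 h with 3.0 mM fluorogenic substrate in McIlvaine buffer containing 0.1% BSA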
T1 construct: Cellular homogenates of Pompe fibroblasts (1 mg mL^−1) were used as protein source for GANAB; endogenous in cells; host or cells: Pompe disease fibroblasts (homogenate)
T1 sequence (Q14697 29-944): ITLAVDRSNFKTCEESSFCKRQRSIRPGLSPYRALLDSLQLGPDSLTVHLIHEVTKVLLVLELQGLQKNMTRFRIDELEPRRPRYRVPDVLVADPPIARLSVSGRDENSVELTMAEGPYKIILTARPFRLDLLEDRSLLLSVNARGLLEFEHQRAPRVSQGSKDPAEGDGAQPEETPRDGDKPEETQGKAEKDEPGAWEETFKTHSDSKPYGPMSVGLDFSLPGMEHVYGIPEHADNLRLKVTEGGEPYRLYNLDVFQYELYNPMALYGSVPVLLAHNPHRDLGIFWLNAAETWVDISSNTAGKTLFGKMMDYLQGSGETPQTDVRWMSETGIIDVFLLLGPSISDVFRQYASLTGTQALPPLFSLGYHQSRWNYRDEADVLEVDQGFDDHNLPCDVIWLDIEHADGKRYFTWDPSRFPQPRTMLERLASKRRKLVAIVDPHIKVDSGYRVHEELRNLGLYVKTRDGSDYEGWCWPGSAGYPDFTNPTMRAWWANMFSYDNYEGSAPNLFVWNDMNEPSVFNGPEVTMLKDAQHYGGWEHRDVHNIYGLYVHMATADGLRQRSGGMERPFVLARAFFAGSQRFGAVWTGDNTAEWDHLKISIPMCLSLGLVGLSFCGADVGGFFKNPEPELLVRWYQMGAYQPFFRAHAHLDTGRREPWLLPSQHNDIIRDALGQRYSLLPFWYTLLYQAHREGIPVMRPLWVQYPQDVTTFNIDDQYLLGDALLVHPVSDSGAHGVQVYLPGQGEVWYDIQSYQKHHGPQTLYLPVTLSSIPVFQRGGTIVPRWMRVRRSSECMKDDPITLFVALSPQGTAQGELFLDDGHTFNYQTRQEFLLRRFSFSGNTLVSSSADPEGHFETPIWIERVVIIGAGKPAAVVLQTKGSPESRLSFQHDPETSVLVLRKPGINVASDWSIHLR
T1 sequence (P14314 15-528 partner): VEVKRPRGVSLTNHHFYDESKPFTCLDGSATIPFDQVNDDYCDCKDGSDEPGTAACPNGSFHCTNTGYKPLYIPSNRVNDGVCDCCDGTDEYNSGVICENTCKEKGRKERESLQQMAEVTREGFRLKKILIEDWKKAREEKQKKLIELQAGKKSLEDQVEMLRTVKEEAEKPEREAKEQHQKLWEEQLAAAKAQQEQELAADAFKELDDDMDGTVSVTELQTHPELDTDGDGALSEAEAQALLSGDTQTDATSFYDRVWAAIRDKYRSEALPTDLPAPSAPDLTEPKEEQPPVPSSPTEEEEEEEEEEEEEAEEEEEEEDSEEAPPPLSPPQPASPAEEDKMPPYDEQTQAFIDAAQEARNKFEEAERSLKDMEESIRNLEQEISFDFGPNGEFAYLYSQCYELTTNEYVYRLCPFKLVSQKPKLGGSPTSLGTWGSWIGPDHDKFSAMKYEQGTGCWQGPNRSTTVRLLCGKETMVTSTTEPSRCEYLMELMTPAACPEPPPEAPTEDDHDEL

[2] = biological target: T2, recombinant human GAA (rhGAA, Myozyme) (Homo sapiens, UniProt P10253); assay: competitive FluoPol-ABPP assay on rhGAA with TAMRA-ABP II; conditions: library screen, 5 μM inhibitor, 25 nM ABP II;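 also: fluorescence polarization read at 540 nm excitation and 590 nm emission, background-corrected, normalized to uninhibited probe labelling as 100% and excess cyclosulfate as 0%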
T2 construct: purchased Genzyme

[3] = biological target: T3, human recombinant lysosomal α-glucosidase GAA (Myozyme) (Homo sapiens, UniProt P10253); assay: fluorogenic substrate (4MU-α-D-glucopyranoside) assay on rhGAA
T3 construct: purchased Genzyme

[4] = Table S2, 4-MU alpha glucoside substrate, read-out: IC50 on GANAB
[5] = Table S2, 4-MU alpha glucoside substrate, read-out: IC50 on rhGAA

SMILES | IC50 [1, 4] [µM] | GAA FP% (residual FP-signal) [2] [%] | IC50 [3, 5] [µM] | other results
OC[C@@H]1[C@@H](O)[C@H](O)[C@@H](O)CN1CCCC(F)(F)COCc1ccc(-c2ccccc2)cc1 [#ID 349] | 4.4 | 3.0 | 0.028 | 
OC[C@@H]1[C@@H](O)[C@H](O)[C@@H](O)CN1CCCCCOCc1ccc(-c2ccc3c(c2)OCCCO3)cc1 [#ID 304] | 1.2 | 0.6 | 0.037 | 
OC[C@@H]1[C@@H](O)[C@H](O)[C@@H](O)CN1CCCCCOCc1ccc(-c2ccc(F)nc2)cc1 [#ID 322] | 1.7 | 0.8 | 0.08 | 
OC[C@@H]1[C@@H](O)[C@H](O)[C@@H](O)CN1CCCCCOCc1ccc(-c2cccnc2)cc1 [#ID 318] | 1.7 | 0.6 | 0.085 | 
CCCCCOCCCCCN1C[C@H](O)[C@@H](O)[C@H](O)[C@H]1CO [#ID 281] |  |  |  | IC50 ([1]; Table S2, 4-MU alpha glucoside substrate, listed as 281, read-out: IC50 on GANAB): 3.7 µM; GAA FP% (residual FP-signal) ([2]; listed as 281): 4.2%; IC50 ([3]; Table S2, 4-MU alpha glucoside substrate, listed as 281, read-out: IC50 on rhGAA): 0.54 µM
CC(C)=CCOCCCCCN1C[C@H](O)[C@@H](O)[C@H](O)[C@H]1CO [#ID 100] | 9.9 | 19 | 0.6 | 
CCCCCCCCCN1C[C@H](O)[C@@H](O)[C@H](O)[C@H]1CO [#ID 103] | 9 | 18 | 0.32 | 
OC[C@@H]1[C@@H](O)[C@H](O)[C@@H](O)CN1CCCCCCOCC12CC3CC(CC(C3)C1)C2 [#ID 141] | 0.58 | 1.8 | 0.29 | 
OC[C@@H]1[C@@H](O)[C@H](O)[C@@H](O)CN1CCCCCOCC12CC3CC(C1)CC(COCCCCCN1C[C@H](O)[C@@H](O)[C@H](O)[C@H]1CO)(C3)C2 [#ID 99] | 1.3 | 5.6 | 0.28 | 
CCCCCCOCCCCCN1C[C@H](O)[C@@H](O)[C@H](O)[C@H]1CO [#ID 21] | 14.8 | 17 | 0.31 | 
OC[C@@H]1[C@@H](O)[C@H](O)[C@@H](O)CN1CCCCCOCc1ccc(-c2ccc(Cl)cc2)cc1 [#ID 314] | 0.15 | 1.7 | 0.093 | 
OC[C@@H]1[C@@H](O)[C@H](O)[C@@H](O)CN1CCCCCOCC(COCCCCCN1C[C@H](O)[C@@H](O)[C@H](O)[C@H]1CO)C12CC3CC(CC(C3)C1)C2 [#ID 197] | 1.3 | 0.4 | 0.22 | 
CC(C)=CCC/C(C)=C/CC/C(C)=C/CN1C[C@H](O)[C@@H](O)[C@H](O)[C@H]1CO [#ID 16] | 8.8 | 0.9 | 0.32 | 
CCCCCCCCN1C[C@H](O)[C@@H](O)[C@H](O)[C@H]1CO [#ID 33] |  |  |  | IC50 ([1]; Table S2, 4-MU alpha glucoside substrate, listed as 33, read-out: IC50 on GANAB): 16 µM; GAA FP% (residual FP-signal) ([2]; listed as 33): 28%; IC50 ([3]; Table S2, 4-MU alpha glucoside substrate, listed as 33, read-out: IC50 on rhGAA): 0.54 µM
OC[C@@H]1[C@@H](O)[C@H](O)[C@@H](O)CN1CCCCCOCc1ccc(-c2ccc(C(F)(F)F)cc2)cc1 [#ID 307] | 1.7 | 2.5 | 0.036 | 
CCCCCCCOCCCCCN1C[C@H](O)[C@@H](O)[C@H](O)[C@H]1CO [#ID 276] |  |  |  | IC50 ([1]; Table S2, 4-MU alpha glucoside substrate, listed as 276, read-out: IC50 on GANAB): 1.81 µM; GAA FP% (residual FP-signal) ([2]; listed as 276): 0.6%; IC50 ([3]; Table S2, 4-MU alpha glucoside substrate, listed as 276, read-out: IC50 on rhGAA): 0.072 µM

SMILES | IC50 [1, 4] [µM] | GAA FP% (residual FP-signal) [2] [%] | IC50 [3, 5] [µM] | other results
OC[C@@H]1[C@H](O)[C@@H](O)[C@H](O)CN1CCOCc1ccccc1 [#ID 47] | 4.6 | 34 | 0.55 | 
CC(C)(C)COCCOCCN1C[C@H](O)[C@@H](O)[C@H](O)[C@H]1CO [#ID 89] | 1.7 | 24 | 0.73 | 
OC[C@@H]1[C@@H](O)[C@H](O)[C@@H](O)CN1CCCCOCCC12CC3CC(CC(C3)C1)C2 [#ID 203] | 2.1 | 9.2 | 0.042 | 
OC[C@@H]1[C@@H](O)[C@H](O)[C@@H](O)CN1CCCCCOCc1ccc(-c2ccccc2)cn1 [#ID 336] | 0.31 | 0.4 | 0.037 | 
OC[C@@H]1[C@@H](O)[C@H](O)[C@@H](O)CN1CCCCCOCc1ccc(-c2ccc(Br)cc2)cc1 [#ID 348] | 0.61 | 3.1 | 0.023 | 
Cc1cccc(-c2ccc(COCCCCCN3C[C@H](O)[C@@H](O)[C@H](O)[C@H]3CO)cc2)c1 [#ID 302] | 1.6 | 0.1 | 0.02 | 
OC[C@@H]1[C@@H](O)[C@H](O)[C@@H](O)CN1CCCCCOCc1ccccc1 [#ID 139] | 9.32 | 20 | 0.76 | 
Cc1ccc(-c2ccc(COCCCCCN3C[C@H](O)[C@@H](O)[C@H](O)[C@H]3CO)cc2)cc1 [#ID 301] | 1.6 | 0.5 | 0.037 | 
OC[C@@H]1[C@@H](O)[C@H](O)[C@@H](O)CN1CCCCCOCc1ccc(-c2ccccc2)cc1 [Compound 6] | 8.3 |  | 1.2 | IC50 ([1]; 4MU-α-glucoside substrate, pH 7.0, mean ± SD, 3 technical replicates, read-out: IC50 GANAB): 8.29 ± 0.17 µM; GAA FP% (residual FP-signal) ([2]; listed as 62): 3.8%; IC50 ([3]; 4MU-α-glucoside substrate, pH 4.0, mean ± SD, 3 technical replicates, read-out: IC50 GAA): 1.18 ± 0.31 µM
OC[C@@H]1[C@@H](O)[C@H](O)[C@@H](O)CN1CCCCCOCc1cccc(-c2ccccc2)c1 [#ID 341] | 0.52 | 1.8 | 0.054 | 
CCCCCCN1C[C@H](O)[C@@H](O)[C@H](O)[C@H]1CO [#ID 293] |  |  |  | IC50 ([1]; Table S2, 4-MU alpha glucoside substrate, listed as 293, read-out: IC50 on GANAB): 14 µM; GAA FP% (residual FP-signal) ([2]; listed as 293): 17%; IC50 ([3]; Table S2, 4-MU alpha glucoside substrate, listed as 293, read-out: IC50 on rhGAA): 1.3 µM
OC[C@@H]1[C@@H](O)[C@H](O)[C@@H](O)CN1CCCCCOCc1ccc(-c2ccc3c(c2)OCO3)cc1 [#ID 303] | 4.7 | 0.1 | 0.14 | 
N#Cc1ccccc1-c1ccc(COCCCCCN2C[C@H](O)[C@@H](O)[C@H](O)[C@H]2CO)cc1 [#ID 328] | 1.7 | 0.7 | 0.021 | 
CCCCCOCCCCCN1C[C@H](O)[C@@H](O)[C@H](O)[C@H]1CO [#ID 20] |  |  |  | IC50 ([1]; Table S2, 4-MU alpha glucoside substrate, listed as 20, read-out: IC50 on GANAB): 19 µM; GAA FP% (residual FP-signal) ([2]; listed as 20): 17%; IC50 ([3]; Table S2, 4-MU alpha glucoside substrate, listed as 20, read-out: IC50 on rhGAA): 0.33 µM
OC[C@@H]1[C@@H](O)[C@H](O)[C@@H](O)CN1CCCCCOCc1ccc(-c2ccccc2)cc1C(F)(F)F [#ID 118] | 0.48 | 2.9 | 0.018 | 
CC(C)(C)COCCCCCN1C[C@H](O)[C@@H](O)[C@H](O)[C@@H]1CO [#ID 26] | 29 | 23 | 0.64 | 
